Measurements: ChEMBL document CHEMBL1157539, “Thousands of chemical starting points for antimalarial lead identification” (Nature, 2010)

Test system: Plasmodium falciparum
Assay: GSK_TCMDC: Inhibition of Plasmodium falciparum 3D7 in whole erythrocytes, using parasite LDH activity as an index of growth.
Assay type: functional, organism-based

Structure (SMILES)	XC50 (Plasmodium falciparum, 3D7) [nM]	XC50 [nM]
Cc1nc(C)c(-c2ccc(Oc3cccc(OC(F)(F)F)c3)cc2)c(O)c1Cl	684	–
O=C(Nc1ccc2c(ccn2C2CCCN(Cc3cc(F)cc(F)c3F)CC2)c1)c1ccco1 (stereo not given)	651	–
CC(C)c1ccc(CN2CCC(CNC(=O)c3cc(-c4cccc(F)c4)cs3)C2)cc1 (stereo not given)	1660	–
COc1ccc(CC(C)NCC(O)c2cccc(C(F)(F)F)c2)cc1 (stereo not given)	1580	–
CN(Cc1ccc(-c2ccc(C(F)(F)F)cc2)cc1)C(=O)Cn1c(CCc2cccc(F)c2F)nc(=O)c2ccc(N3CCN(CCN4CCCCC4)CC3)nc21	764	–
CCNc1cc(CC)nc(Nc2ccc(C)cc2)n1	848	–
Cc1cc(O)c2c(c1)OC(C)(C)C=C2C1=CCN(Cc2ccccc2)CC1	791	–
COc1c(C2CCN(CCCCNC(=O)c3noc(-c4ccc(C#N)cc4)n3)CC2)ccc2c1CCCC2	776	–
O=C(NC1CCC1)C1CCN(C(c2ccccc2)c2cc(F)cc(F)c2)CC1 (stereo not given)	797	–
CC(O)C1CCCCN1C(=O)c1ccc(-c2cccc(-c3nc4cc(F)ccc4[nH]3)c2)cc1 (stereo not given)	540	–
CC(C)(CNCc1cccc(Oc2ccccc2)c1)c1nc(-c2ccnc(N)n2)c(-c2ccc(Cl)c(O)c2)[nH]1	760	–
CCOC(=O)c1ccc(OCCOc2ccccc2)cc1	367	–
C=CCc1cccc(CN2CCC(c3cc(O)nc(-c4ccccn4)n3)CC2)c1O	1100	–
Cn1c(Cc2ccccc2)nnc1Sc1ccc(C#N)c([N+](=O)[O-])c1	907	–
COc1cc(C=CC(=O)NC2CCC(CN3CCC(c4c[nH]c5ccccc45)CC3)CC2)cc(OC)c1 (stereo not given)	807	–
COc1ccc(CC2(c3ccc(F)cc3)N=C(N)N(CCCc3ccc(F)c(F)c3)C2=O)cc1 (stereo not given)	779	–
c1ccc2c(Nc3ccc(Cc4ccc(Nc5c6ccccc6nc6ccccc56)cc4)cc3)c3ccccc3nc2c1	162	–
N=C(N)Nc1cccc(NC(=O)Nc2cccc(NC(=N)N)c2)c1	258	–
Cc1cc(N(C)CCCN2CCCCC2)nc(Nc2ccc(Cl)cc2)n1	188	–
CCc1ccc(S(=O)(=O)Nc2ccc(CCN3CCC(N4CCCCC4)CC3)cc2)cc1	988	–
CCOCCCNc1nc2cc(OC)c(OC)cc2c2nc(-c3ccccc3)nn12	209	–
Cc1cccc2nc(-c3ccc(-c4cccc(CN5CCCC(N)C5)c4)s3)[nH]c12 (stereo not given)	539	–
COc1ccc(C2CC(c3ccccc3)=NN2C(=O)c2ccc(Br)o2)cc1 (stereo not given)	323	–

Structure (SMILES)	XC50 (Plasmodium falciparum, 3D7) [nM]	XC50 [nM]
O=C(NCc1ccc(C(F)(F)F)cc1)c1cccc(-c2nnc(-c3cccc(-c4cncnc4)c3)o2)c1	544	–
CCC(C)OC(=O)C1=C(C)NC2=C(C(=O)CC(c3ccc(OC)c(OC)c3)C2)C1c1ccc(O)cc1 (stereo not given)	218	–
CN(CCN1CCCC1)c1nc2cc(-n3cnc4cc(-c5ccc(Cl)cc5)sc4c3=O)ccc2[nH]1	824	–
O=C(NCCCCN1CCC(c2ccc3c(c2OCC(O)c2ccc(Cl)cc2)CCCC3)CC1)c1ccc(-c2ccc(C(F)(F)F)cc2)cc1 (stereo not given)	1040	–
Cn1cc(CCNc2ccnc(NCCc3coc4ccccc34)n2)c2ccccc21	1060	–
Cc1cc(Cl)c(S(=O)(=O)N2CCc3ccccc32)cc1OCC(=O)NC1CCCCC1	302	–
CCOc1cc(C(=O)Nc2ccc3nc(N4CCN(C)CC4)cc(C)c3c2)cc(OCC)c1OCC	847	–
NC(=O)c1ccc(NC(=O)CN(Cc2ccc(Cl)cc2)S(=O)(=O)c2ccccc2)cc1	653	–
CCN(CCCN1CCCCC1)c1cc(C)nc(Nc2ccc(Br)cc2F)n1	548	–
COc1ccc(CNC2CCN(c3ccc(NC(=O)c4cccc(Cl)c4)cc3)CC2)cc1OC	1020	–
O=C(Nc1ccncc1)Nc1ccc2c(c1)CCN(C1CCC1)CC2	1130	–
O=C(c1cc(OC(F)(F)F)ccc1O)N1CCN(c2ccccc2)CC1	1050	–
O=C1CSc2ccc(CNC3CCN(CCc4c(Cl)cnc5ccc(Cl)cc45)CC3)nc2N1	229	–
CC(OC(=O)c1ccc(C(=O)NCC2CC2)cc1)C(C)(C)C (stereo not given)	791	–
c1cc2[nH]c(CCc3nc4cc(C5=NC6CCCCC6N5)ccc4[nH]3)nc2cc1C1=NC2CCCCC2N1 (stereo not given)	230	–
C=C(C)CSc1nc2c(c(=O)n1CCc1ccccc1)C1(CCCC1)Cc1ccccc1-2	607	–
NC(=O)c1ccccc1Nc1nc(Nc2cc[nH]n2)ncc1Cl	958	–
CCCCCCCc1ccc(-c2c(C)[nH]c(C)c(Cl)c2=O)cn1	361	–
O=C(Nc1cccc(CCNCc2ccccc2)c1)Nc1cccc2ccccc12	729	–
Cc1c(Cn2ncc(N3CC(C)NC(C)C3)c(Cl)c2=O)cccc1NC(=O)Nc1ccc(-c2ccccc2)cc1 (stereo not given)	596	–
O=C(/C=C/c1ccsc1)NC1CCC(CN2CCC(c3c[nH]c4ccccc34)CC2)CC1 (stereo not given)	1120	–
COc1ccc2nccc(N(C)CC3(O)CCN(CC(O)c4ccc5c(c4)NC(=O)CS5)CC3)c2n1 (stereo not given)	590	–
Cc1cc(C)cc(OCC(O)CN(Cc2cc(Cl)cc(Cl)c2)C(=O)Nc2ccc(Cl)cc2)c1 (stereo not given)	810	–

Structure (SMILES)	XC50 (Plasmodium falciparum, 3D7) [nM]	XC50 [nM]
CCCCCCCc1c(C)nc2ccccc2c1O	206	–
Cc1nnc2sc(-c3cccc(NC(=O)c4ccc(N5CCCCC5)c([N+](=O)[O-])c4)c3)nn12	1300	–
O=C(Cc1cccc2ccccc12)NC1CCN(c2ccnc3cc(Cl)ccc23)C1 (stereo not given)	248	–
Cc1cc(N[C@@H](CC(C)C)C(=O)NCCOc2ccccc2)nc(Nc2ccccc2)n1	1110	–
N=C(N)NC(=O)Nc1cc(Cl)c(Br)c(Cl)c1	469	–
C#CCOc1ccc(CC(C)NCC(O)c2cccc(C(F)(F)F)c2)cc1 (stereo not given)	1030	1190
O=C(Nc1cccc(-c2ccc(CN3CCNCC3)cc2)c1)c1cccc(Cl)c1	1250	–
Cc1cccnc1Nc1nc(-c2ccccn2)cs1	687	–
COc1ccc(CCC(C)(C)NCC(O)c2cccc(C(F)(F)F)c2)cc1 (stereo not given)	480	–
Cc1c(OC(C)C)nc2ccccc2c1C(=O)N[C@H](c1cccc(F)c1)C1CC1	1090	–
Cc1[nH]c2ccccc2c1C1=CCN(CCCCCC23CCCc4cccc(c42)NC3=O)CC1 (stereo not given)	253	–
Cc1nnc(Sc2ncnc3scc(-c4ccc(F)cc4)c23)s1	811	–
Cc1cccc2nc(-c3ccc(-c4cccc(NC(=O)Nc5ccc(Cl)c(Cl)c5)c4)s3)[nH]c12	594	–
CN(C)CC(=O)NCC(NCCCNc1cc(=O)c2ccccc2[nH]1)c1cc(Br)cc(Br)c1 (stereo not given)	1050	–
CC(C)CCn1c(Sc2ccc(C#N)c([N+](=O)[O-])c2)nnc1-c1ccccc1Cl	1030	–
CCOC(=O)c1cn(CC)c2cc(N3CCCCCC3)c(F)cc2c1=O	413	–
COc1ccc(C)cc1NC(=O)CSc1nc2cccnc2n1C1CCCCC1	544	–
Cc1cc(N[C@@H](CC(C)C)C(=O)NCCOc2ccccc2)nc(NCCc2ccccc2)n1	1510	–
C[C@@H](CC1CCCCC1)OC(=O)N[C@H]1CCN(C#N)C1	870	–
CC1(C)CN(CCC2CCC(NC(=O)/C=C/c3ccccc3F)CC2)Cc2ccc(C#N)cc21 (stereo not given)	1110	–
CC(=O)c1ccc(O)c(CC(O)CO)c1 (stereo not given)	723	–
CCOc1cc2ncnc(Nc3cc(Cl)c(Cl)c(Cl)c3)c2cc1OCC	197	–
OC(CNC12CC3CC(CC(C3)C1)C2)c1cccc(C(F)(F)F)c1 (stereo not given)	301	–

Structure (SMILES)	XC50 (Plasmodium falciparum, 3D7) [nM]	XC50 [nM]
CCN(CC)CCCC(C)Nc1c2ccccc2nc2ccc3ccccc3c12 (stereo not given)	1040	–
COc1cc(Cc2cnc(N)nc2N)cc(OCCCC#N)c1OC	1030	–
CN(C)c1ccc(C=C2SC(=N)N(c3nccs3)C2=O)cc1	461	–
C[C@@H]([C@@H](CCCc1ccc(Cl)cc1)C(=O)N[C@H](C(=O)Nc1cccnc1)C(C)(C)C)N(O)C=O	719	–
CCN(CC)CCOc1ccc(NC(=O)c2oc3ccccc3c2C=Cc2ccccc2)cc1	223	–
COc1cc(NC(=O)N2CCOC(CCN3CCC4(CCc5ccccc54)CC3)(c3ccc(Cl)c(Cl)c3)C2)cc(OC)c1OC (stereo not given)	156	–
c1ccc(-n2ncc(CNCc3ccc(-c4cccc(-c5nc6ccccc6[nH]5)c4)cc3)n2)cc1	1230	–
O=C(NCc1ccccc1)c1nn(CCCN2CCC(N3CCCC3)CC2)cc1-c1ccc(Cl)c(Cl)c1	675	–
Cc1cc(NCCC(=O)NCCc2ccccc2)nc(NCCc2ccc(F)cc2)n1	1080	–
CC(=O)c1cccc(Nc2nc3ccc(OCc4cc(Cl)cc(Cl)c4)c(C#N)c3[nH]2)c1	869	–
COc1cc(N(Cc2ccccc2C)S(=O)(=O)Cc2ccccc2[N+](=O)[O-])c(OC)cc1Cl	1010	–
Cc1cccc2nc(-c3ccc(-c4ccc(CN5CCN(CC6CCCN(C)C6)CC5)cc4)cc3)[nH]c12 (stereo not given)	144	–
Clc1ccc(-c2[nH]c3ccccc3c2CN2CCC(N3CCCCC3)CC2)cc1	1060	–
NC(=O)c1ccc(C(=O)Nc2cccc(-c3csc(-c4nc5ccccc5[nH]4)c3)c2)cc1	351	–
COc1ccc2c(c1)Sc1ccccc1C(N1CCN(CCO)CC1)C2 (stereo not given)	1390	–
CCCCCCC(N)c1ccc(OCCCOc2ccc(C(N)CCCCCC)cc2)cc1 (stereo not given)	1140	–
Cc1cc(NCCC(=O)Nc2ccccc2)nc(NCCc2cccnc2)n1	1240	–
CCN(CC)CCn1c2ccccc2c2ccc(C(=O)Nc3ccc4sc(C)nc4c3)cc21	1060	–
Brc1ccc(Nc2nc3ccccc3nc2Nc2ccc(Br)cc2)cc1	783	–
Cc1nc(-c2cccc(Nc3nccc(NCC(O)c4ccc(C(F)(F)F)cc4)n3)c2)cs1 (stereo not given)	511	–
